Reference: US20210353611A1, “METHODS OF TREATING AMYOTROPHIC LATERAL SCLEROSIS” (Yeda Research and Development Co. Ltd., priority 2018, published 2021)
Counter-ions that a name gives are not always drawn.

Tests used:
[1] = tested on: SOD1-Tg mice; test: Motor function tests (rotarod, hanging-wire grip test, neurological scoring) in ALS mouse model; assay type: in vivo; conditions: subcutaneously implanted mini osmotic pumps, continuous administration; vs vehicle-treated SOD1-Tg mice
Source text: G93A mSOD1-Tg mice on a C57BL/6 background were used. In all experiments, age- and gender-matched mice were used and WT littermates as controls. Mice were 40 days of age at the beginning of experiments. All mice were kept at a strict 24 hr reverse light-dark cycle, with lights being turned on from 10 pm to 10 am. Tryptophan-deficient diet (A10033Yi, Research diets, NJ, USA) was applied from the age of 40 days until the experimental end-point. For antibiotic treatment, mice were given a combination of vancomycin (0.5 g/l), ampicillin (1 g/l), kanamycin (1 g/l), and metronidazole (1 g/l) in their drinking water from the age of 40 days as previously described (Levy et al., 2015). […]
Vehicle control pumps contained equivalent volume of Ultra-pure water. […] The cut was then closed with sterile surgical clips and the animals were carefully monitored for any signs of stress, bleeding, pain, or abnormal behavior. […]
Rotarod: To assess motor coordination and balance, each mouse was tested with a rotarod device (Panlab Le8500 Harvard Apparatus, Spain), in acceleration speed mode (increasing from 4 rpm to 40 rpm during 10 min), with a maximum test time of 5 min. […] Each mouse was recorded three times at the ages of 60, 80, 100, 120 and 140 days. The apparatus automatically recorded the elapsed time when the mouse fell from the spindle. […]

[2] = tested on: SOD1-Tg mice; test: Survival of SOD1-Tg mice; assay type: in vivo, mouse; conditions: NAM s.c. osmotic pumps vs vehicle; p=0.1757, Log-rank test
Method: From the age of 130 days, mice were monitored daily. The endpoint was defined by reaching neurological score of 4 and/or more than 15% reduction in body weight. The probability of survival was calculated using the Kaplan-Meier method, and statistical analysis was performed using a log-rank test.

[3] = NAM levels in CSF and sera of mice (targeted metabolomics); conditions: NAM 49.28 mg/kg/week s.c. osmotic pumps; SOD1-Tg mice vs water-treated controls
Method: Mice were anesthetized by i.p. injection of ketamine (100 mg/kg) and xylazine (10 mg/kg). The skin of the neck was shaved, and the mouse was placed prone on the stereotaxic instrument. The head was secured with the head adaptors. […] Under the dissection microscope, the subcutaneous tissue and muscles (m. biventer cervicis and m. rectus capitis dorsalis major) were separated by blunt dissection with forceps. A pair of micro-retractors is used to hold the muscles apart. The dura mater was blotted dry with sterile cotton swab. CSF was collected using a capillary tube to penetrate into the cisterna magna through the dura mater, lateral to the arteria dorsalis spinalis, immediately frozen in liquid nitrogen and stored at −80° C.
The samples (in 50% Methanol) were dried in a speed vac to blow off the methanol before drying to completion in a lyophilizer. All samples were re-dissolved in 100 μl of 0.1% formic acid.
Liquid Chromatography: Liquid chromatography was performed on a Waters Acquity UPLC system. […] Mobile phase consisted of (A) water and (B) acetonitrile each containing 0.1% formic acid. […]
Mass Spectrometry: LC-MS/MS analysis was performed on a Waters Xevo triple quadrupole equipped with a Zspray ESI source. […] TargetLynx (Waters) was used for Qualitative and Quantitative analysis.

Row | Structure (SMILES) | ALS symptoms / behavioral and neurological motor tests [1] | Survival [2] | NAM levels in sera [3]
1 | NC(=O)c1cccnc1 [NAM, Nicotinamide] | performed significantly better | non-significantly trend to improve survival | significantly increased
2 | O=S(=O)(O)Oc1ccccc1 [Phenol sulfate] | did not affect ALS symptoms | – | –
